Each structure is given as a SMILES string.

This test concerns the target Transthyretin (Homo sapiens, UniProt P02766, V50M). Nature of the test: Inhibition of acid-mediated aggregation of TTR V30M mutant (unknown origin) expressed in Escherichia coli pretreated for 30 mins at pH 7 followed by protein dilution in acetate buffer and further incubated for 96 hrs at pH 4.6 by thioflavin-T fluorescence assay.
Consider `O=C(O)c1ccc2c(=O)c3c(Cl)cccc3oc2c1`, for which the IC50 was 10 µM.

`O=C1c2cccc(O)c2C(=O)c2c(O)cccc21` [DANTHRON]: the concentration for half-maximal inhibition (IC50) is more than 100 µM.

Take `Nc1ccc(O)c2c1C(=O)c1c(O)c(S(=O)(=O)O)cc(N)c1C2=O`: the concentration for half-maximal inhibition (IC50) is more than 100 µM.

`O=C(O)c1ccc2oc3cc(Cl)ccc3c(=O)c2c1`: the IC50 is more than 100 µM.

Take `Oc1ccc(O)c2c(O)c3ccccc3c(O)c12`: the concentration for half-maximal inhibition (IC50) is more than 100 µM.

On to `O=C(O)c1ccc2c(c1)C(=O)c1ccccc1C2=O`, for which the IC50 is 28 µM.

As to `COc1cc(O)c2c(c1)C(=O)c1cc(C)cc(O)c1C2=O` [PHYSCION], the IC50 is more than 100 µM.

On to `O=C1c2ccccc2C(=O)c2c(O)ccc(O)c21` [QUINIZARIN], for which the IC50 is more than 100 µM.

As to `CC(=O)Oc1cccc2c1C(=O)c1ccc(C(=O)O)cc1C2=O`, the IC50 stood at 10 µM.

On to `O=C1c2cccc(O)c2C(=O)c2c(O)cc(CO)cc21` [ALOE-EMODIN], for which the IC50 was more than 100 µM.

On to `O=C(O)c1cc(Cl)c2oc3c(Cl)cccc3c(=O)c2c1`, for which the IC50 is 9.1 µM.

Take `O=C1c2ccccc2C(=O)c2c1ccc(O)c2O` [ATHRAQUINONES A]: the 50% inhibitory concentration (IC50) was more than 100 µM.

Regarding `CC(=O)Oc1cccc2c1C(=O)c1c(OC(C)=O)cc(C(=O)O)cc1C2=O` [DIACEREIN], the IC50 stood at 5.4 µM.

For `O=C(O)c1cc(F)c2c(c1)C(=O)c1ccccc1C2=O`, the IC50 worked out at 24 µM.

As to `CC(C)=CCc1c(O)cc2oc3cc(O)c(O)c(CC=C(C)C)c3c(=O)c2c1O`, the half-maximal inhibitory concentration (IC50) amounted to 10 µM.

With `O=C(O)c1ccc2oc3c(Cl)cccc3c(=O)c2c1`, the IC50 came out at 13 µM.

For the molecule `O=C(O)c1ccc2c(=O)c3ccccc3oc2c1`, the IC50 was found to be 19 µM.

For `O=C(O)c1ccc2c(=O)c3cccc(Cl)c3oc2c1`, the IC50 was 7.7 µM.

Consider `O=C1c2ccccc2C(=O)c2c(O)c(O)cc(O)c21` [PURPURIN], for which the IC50 is 12 µM.

Regarding `O=C(O)c1ccc2oc3cccc(Cl)c3c(=O)c2c1`, the 50% inhibitory concentration (IC50) came to 13 µM.

On to `O=C(O)c1ccc2oc3ccccc3c(=O)c2c1`, for which the IC50 was 22 µM.

On to `O=C1c2ccc(O)c(O)c2C(=O)c2c(O)ccc(O)c21` [QUINALIZARIN], for which the concentration for half-maximal inhibition (IC50) is more than 100 µM.

As to `Cc1cc(O)c2c(c1)C(=O)c1cccc(O)c1C2=O` [CHRYSOPHANOL], the IC50 is more than 100 µM.

`O=C(O)c1cc(C(=O)O)c2c(c1)C(=O)c1ccccc1C2=O`: the IC50 was more than 100 µM.

`Nc1c(O)c(S(=O)(=O)O)c(O)c2c1C(=O)c1ccccc1C2=O`: the IC50 came to 11 µM.

For `O=C(O)c1cc(O)c2c(c1)C(=O)c1cccc(O)c1C2=O` [RHEIN], the IC50 worked out at 12 µM.

Take `Cc1ccc2c(=O)c3ccccc3oc2c1`: the half-inhibitory concentration (IC50) was more than 100 µM.

Consider `O=C(O)c1ccc2c(=O)c3ccc(Cl)cc3oc2c1`, for which the half-inhibitory concentration (IC50) is 13 µM.

Turning to `O=C(O)c1ccc2c(c1)C(=O)c1cccc(O)c1C2=O`, the IC50 worked out at 50 µM.

Regarding `O=C(O)c1cc(Cl)c2c(c1)C(=O)c1ccccc1C2=O`, the IC50 amounted to 12 µM.

For the molecule `Cc1ccc2oc3ccccc3c(=O)c2c1`, the 50% inhibitory concentration (IC50) is more than 100 µM.

Take `O=C1c2cccc(O)c2C(=O)c2cccc(O)c21` [ANTHRARUFIN]: the half-inhibitory concentration (IC50) was more than 100 µM.

`COc1cccc2c1C(=O)c1c(O)c3c(c(O)c1C2=O)C[C@@](O)(C(C)=O)C[C@@H]3O[C@H]1C[C@H](N)[C@H](O)[C@H](C)O1` [DAUNORUBICIN]: the 50% inhibitory concentration (IC50) is more than 100 µM.

Turning to `O=C1c2ccc(O)cc2C(=O)c2c1ccc(O)c2O`, the half-maximal inhibitory concentration (IC50) came out at 12 µM.

`Cc1cc(O)c2c(c1)C(=O)c1cc(O)cc(O)c1C2=O` [EMODIN]: the half-inhibitory concentration (IC50) was more than 100 µM.

As for `O=C(O)c1ccc2c(c1)C(=O)c1c(Cl)c(Cl)c(Cl)c(Cl)c1C2=O`, the IC50 came out at 21 µM.

For `O=C(O)c1ccc2c(=O)c3cc(Cl)ccc3oc2c1`, the IC50 is 10 µM.

As to `CCOc1cccc2c1C(=O)c1ccc(C(=O)O)cc1C2=O`, the half-inhibitory concentration (IC50) worked out at 22 µM.

As to `O=C(O)c1ccc2oc3ccc(Cl)cc3c(=O)c2c1`, the IC50 was 12 µM.

For the molecule `Cc1cc(C(=O)O)c2c(c1)C(=O)c1ccccc1C2=O`, the IC50 came to 45 µM.

(Values after ChEMBL document CHEMBL4811317, “Inhibitory activities of anthraquinone and xanthone derivatives against transthyretin amyloidogenesis” (Bioorg Med Chem, 2021).)
